Measurements reported in patent publication US6355644B1, “Benzylpiperazinyl-indolinylethanones” (Neurogen Corporation, priority 1999, dated 2002).

Assays:
dopamine D4 receptor = biological target: T1, dopamine D4 receptor (Homo sapiens, UniProt P21917); experiment: D4 receptor binding assay (3H-YM 09151-2 displacement); settings: CHO cells recombinantly expressing human D4; 0.1 nM 3H-YM 09151-2; 25° C.
T1 sequence (P21917 1-419): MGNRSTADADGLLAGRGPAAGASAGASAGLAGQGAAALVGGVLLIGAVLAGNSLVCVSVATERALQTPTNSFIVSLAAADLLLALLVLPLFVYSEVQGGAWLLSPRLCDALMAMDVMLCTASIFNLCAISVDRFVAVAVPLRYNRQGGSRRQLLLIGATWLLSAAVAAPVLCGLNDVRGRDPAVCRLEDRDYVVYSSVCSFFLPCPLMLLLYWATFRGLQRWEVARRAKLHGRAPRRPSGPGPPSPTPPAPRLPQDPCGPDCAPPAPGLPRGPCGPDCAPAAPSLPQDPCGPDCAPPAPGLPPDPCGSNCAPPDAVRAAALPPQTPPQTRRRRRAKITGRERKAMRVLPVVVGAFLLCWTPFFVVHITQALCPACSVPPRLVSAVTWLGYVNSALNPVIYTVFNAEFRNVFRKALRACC
Experimental: (§1) Determination of D2 and D4 Receptor Binding Activity
(§2) The following assay is used for determining the binding affinity of compounds to dopamine D4 and D2 receptors.
(§3) Pellets of Chinese hamster ovary (CHO) cells containing recombinantly expressing primate D2, human D4 or […] receptors are used for the assays. The sample is homogenized in 100 volumes (w/vol) of 0.05 M Tris HCl buffer containing 120 mM NaCl, 5 mM MgCl2 and 1 mM EDTA at 4° C. and pH 7.4. The sample is then centrifuged at 30,000×g, resuspended and rehomogenized. The sample is then recentrifuged at 30,000×g, the supernatant is removed and the final tissue sample is frozen until it is needed. The tissue is resuspended 1:20 (wt/vol) in 0.05 M Tris HCl buffer containing 120 mM NaCl.

dopamine D2 receptor = dopamine D2 receptor (Chlorocebus aethiops, UniProt P52702); experiment: D2 receptor binding assay (3H-YM 09151-2 displacement); settings: CHO cells recombinantly expressing primate D2; 0.1 nM 3H-YM 09151-2; 25° C.
dopamine D2 receptor, sequence (P52702 whole entry): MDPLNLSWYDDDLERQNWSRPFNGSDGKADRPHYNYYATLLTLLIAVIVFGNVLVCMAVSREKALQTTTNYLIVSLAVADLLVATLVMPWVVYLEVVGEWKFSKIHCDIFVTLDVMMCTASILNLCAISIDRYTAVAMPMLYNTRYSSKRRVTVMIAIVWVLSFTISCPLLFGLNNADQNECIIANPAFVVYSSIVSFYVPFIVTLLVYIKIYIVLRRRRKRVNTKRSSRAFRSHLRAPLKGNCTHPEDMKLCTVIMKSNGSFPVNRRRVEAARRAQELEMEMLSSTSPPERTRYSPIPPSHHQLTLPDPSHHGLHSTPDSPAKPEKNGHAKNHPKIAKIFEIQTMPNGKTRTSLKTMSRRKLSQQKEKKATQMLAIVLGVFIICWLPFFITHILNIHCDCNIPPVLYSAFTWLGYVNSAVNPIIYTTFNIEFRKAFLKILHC
Experimental: as §1, §2, §3

Row | Ki (dopamine D4 receptor) [nM] | Ki (dopamine D2 receptor) [nM] | Compound
1 | 11 | 200 | Cc1ccc(CN2CCN(CC(=O)N3c4ccccc4[C@H]4CCCC[C@H]43)CC2)cc1 (relative stereo) [Compound 1o, 1-[(4b,8a-cis-5,6,7,8,9,4b,8a-heptahydro-4aH-carbazol-9-yl)ethyl]-2-{4-[(4-methylphenyl)methyl]piperazinyl}ethan-1-one]
2 | 93 | 2640 | Cc1ccc(CN2CCN(CC(=O)N3CC(C)c4ccccc43)CC2)cc1 (centres unmarked) [Compound 1b]
3 | 2 | 185 | Cc1ccc(CN2CCN(CC(=O)N3c4ccccc4[C@@H](C)[C@H]3C)CC2)cc1 [Compound 1c]
4 | 70 | 473 | Cc1ccc(CN2CCN(CC(=O)N3c4ccccc4[C@H](C)[C@@H]3C)CC2)cc1 [Compound 1d]
5 | 22 | 128 | COc1ccc(Cl)cc1CN1CCN(CC(=O)N2c3ccccc3C(C)C2C)CC1 (centres unmarked) [Compound 1e]
6 | 5 | – | COC(=O)C1Cc2ccccc2N1C(=O)CN1CCN(Cc2ccc(Cl)cc2)CC1 (centres unmarked) [Compound 1g]
7 | 5 | – | C=C[C@@H]1Cc2ccccc2N1C(=O)CN1CCN(Cc2ccc(Cl)cc2)CC1 [Compound 1l]

Row | Compound | Ki (dopamine D4 receptor) [nM] | Ki (dopamine D2 receptor) [nM]
8 | O=C(CN1CCN(Cc2ccc(Cl)cc2)CC1)N1c2ccccc2CC1CO (centres unmarked) [Compound 1j] | – | 3210
9 | O=C(CN1CCN(Cc2ccc(Cl)cc2)CC1)N1c2ccccc2C[C@H]1CF [Compound 1m] | – | 1100
